Reference: patent US20090081120A1, “Methods and Compositions for Increasing Patient Tolerability During Myocardial Imaging Methods” (CV Therapeutics, Inc., priority 2006, published 2009)

Key:
normal subjects [1] = experiment: Safety and tolerability of regadenoson with and without prior caffeine; format: in vivo, human
Procedure: (§1) 15O water was used as the radionuclide in the PET scans. There was a 1- to 14-day washout period between dosing days. Blood samples and measures of safety were collected until 120 minutes after study drug administration.
Safety measures included adverse events (AEs), serious adverse events, vital signs (HR and BP), ECG, concomitant medications, and a tolerability questionnaire. All available data from subjects who received the single dose of regadenoson were to be included in the statistical summaries.
ECG intervals and changes from baseline values in ECG intervals were to be presented, as were occurrences of rhythm or conduction abnormalities. Concomitant medication usage was to be summarized.
Tolerability questionnaire responses were to be analyzed using the Wilcoxen rank sum test (“How did you feel?” question) and the exact Cochran-Mantel-Haenszel test (Day 2—only question “How did this test compare to the first test?”).

normal subjects [2] = experiment: Crossover PET study of regadenoson-induced myocardial blood flow (coronary flow reserve) with caffeine or placebo; format: in vivo, human
Procedure: as §1
Open-label study drug was supplied as sterile stock solution in single-use vials each containing 5 mL of regadenoson (0.08 mg/mL). Regadenoson, 400 μg, was administered as a rapid bolus, through an iv catheter over approximately 10 seconds, followed immediately by a 5 mL saline flush.
On each of 2 study days, subjects received a single dose of regadenoson, administered intravenously as a rapid (10-second) bolus of 5 mL, followed by a 5 mL saline flush. There was a 1- to 14-day washout period between doses.
The CVT tracking number for the placebo capsules was 1341 (Leg 2).
The primary efficacy measure was the log coronary flow reserve (CFR), which is the ratio of stress MBF after regadenoson dosing to the resting MBF.
The data were also to be analyzed using Wilcoxon's rank-sum test.

conscious dogs [3] = experiment: Regadenoson-induced coronary vasodilation (CBF) with and without caffeine in conscious dogs; format: in vivo, dog; conditions: for change of the maximum increase in CBF induced by Regadenoson vs control: p>0.05
Procedure: (§2) Sixteen chronically instrumented male mongrel dogs weighing from 22-30 kg were used in the study. The animal protocol was approved by the Institutional Animal Care and Use Committee of New York Medical College and conforms to the Guide for the Care and Use of Laboratory Animal by the United States National Institutes of Health.
(§3) Dogs were sedated with acepromazine (0.3 mg/kg, IM) and anesthetized with pentobarbital sodium (25 mg/kg, IV). After intubation, dogs were artificially ventilated with room air. A thoracotomy was made in the fifth intercostal space using sterile techniques. A Tygon catheter (Cardiovascular Instruments, Wakefield, Mass.) was inserted into the descending thoracic aorta and another one was inserted into the left atrium. In 9 dogs, an ultrasound flow transducer (Transonic Systems, Ithaca, N.Y.) was placed around the left circumflex coronary artery. A solid-state pressure gauge (P6.5, Konisberg Instruments, Pasadena, Calif.) was placed into the left ventricle through the apex. The chest was closed in layers. The catheters and wires were tunneled subcutaneously and externalized through the skin at the back of the dog's neck. Dogs were allowed to recover from the surgery before experiments were performed, and were trained to lie on a table.
(§4) Phasic arterial pressure was measured by connecting the aortic catheter to a strain gauge transducer (P23 ID, LDS Test and Measurement, Valley View, Ohio). Left ventricular pressures were measured by the solid pressure gauge. CBF (mL/min) was measured from an ultrasound flow transducer using a Transonic flowmeter (T206, Transonic Systems, Ithaca, N.Y.). Two indices were used to describe the Regadenoson-induced coronary vasodilation: 1) the maximum increase in CBF and 2) the duration of the 2-fold increase in CBF (the period of time that CBF was elevated to a level ≧2-fold of baseline CBF). All pressure and flow data were acquired and analyzed using a Ponemah System (Version 3.30 or 4.20, LDS Test and Measurement, Valley View, Ohio). MAP and HR were calculated from phasic blood pressure, and LV dP/dtMax was calculated from the left ventricular systolic pressure.
(§5) On the day of an experiment, a dog was placed on a table, where it lay quietly during the experiment. A catheter was inserted into a peripheral vein in the leg and attached to an infusion line to administer drugs without disturbing the dog. The experiment was begun after MAP, HR and CBF were stable.
In 4 dogs, two doses of Regadenoson (5 μg/kg, IV) were given 90 min apart (without blood sampling) to determine if there is tachyphylaxis of Regadenoson-induced coronary vasodilation.
(§6) Regadenoson was supplied by CV Therapeutics, Inc. as a sterile stock solution (Lot#: 803604, 0.08 mg/mL), that was made using 15% Propylene Glycol (pH 7) and was diluted in normal saline before injection.
The statistical significance of a difference between the value of a parameter at baseline and at the indicated time point after drug administration was determined using a One-Way Repeated Measures ANOVA followed by Tukey's Test. The statistical significance of a difference between responses to Regadenoson in the absence and presence of caffeine was determined using a Two-Way Repeated Measures ANOVA followed by Tukey's Test. Results with p<0.05 were considered to be significant. A computer-based software package (SigmaStat 2.03) was used for statistical analysis. All data are presented as Mean±SEM.

conscious dogs [4] = experiment: Regadenoson-induced changes in hemodynamics (MAP, HR, LVSP, LV dP/dtMax) with and without caffeine in conscious dogs; format: in vivo, dog; conditions: for increase in peak HR from baseline: p<0.05 vs control
Procedure: as §2, §3, §4, §5, §6
The statistical significance of a difference between the value of a parameter at baseline and at the indicated time point after drug administration was determined using a One-Way Repeated Measures ANOVA followed by Tukey's Test. […] Results with p<0.05 were considered to be significant. A computer-based software package (SigmaStat 2.03) was used for statistical analysis. All data are presented as Mean±SEM.

[5] = Plasma regadenoson concentrations after IV injection in conscious dogs; conditions: effect of caffeine at 1, 2, 4 or 10 mg/kg
Procedure: Each dog received an IV injection of 5 μg/kg of Regadenoson. […] LVSP, LV dP/dtMax, MAP, HR and CBF were recorded continuously. Blood samples were taken from the left atrial catheter at 1, 3, 5, 15, 30, 45 and 60 min following injections of Regadenoson.

[6] = caffeine 200 mg po before regadenoson 400 μg IV
[7] = regadenoson 400 μg IV, caffeine 200 mg po
[8] = regadenoson 5 μg/kg IV in the presence of caffeine 1 mg/kg
[9] = regadenoson 5 μg/kg IV in the presence of caffeine 2 mg/kg
[10] = after regadenoson 400 μg IV dosing
[11] = regadenoson 400 μg IV, at any time, 25/43 subjects

SMILES: Cn1c(=O)c2c(ncn2C)n(C)c1=O [Caffeine, caffeine]
- effect of caffeine on the severity of AEs (normal subjects [1]; [6]): attenuated
- overall incidence of AEs between the placebo and caffeine groups (normal subjects [1]; [6]): no difference
- effect of caffeine on the HR increase caused by regadenoson (normal subjects [1]; caffeine 200 mg po before regadenoson 400 μg IV, p<0.001): attenuated
- tolerability questionnaire: feeling after the caffeine test vs after the placebo test (normal subjects [1]; caffeine 200 mg po, regadenoson 400 μg IV, p<0.001): felt better
- tolerability questionnaire: comfort during the test (normal subjects [1]; test with caffeine 200 mg po vs placebo, regadenoson 400 μg IV, p<0.001): felt more comfortable
- change in CFR with caffeine (normal subjects [2]; caffeine 200 mg po vs placebo before regadenoson 400 μg IV): no change in CFR detected
- change in CFR (printed: not ≧20%) (normal subjects [2]; caffeine 200 mg po vs placebo before regadenoson 400 μg IV, 95% confidence): < 20%
- exponentiated lower limit of the 90% confidence interval for log CFR (caffeine versus placebo difference) (normal subjects [2]; [7]): 0.80
- exponentiated lower limit of the 95% confidence interval for log CFR (caffeine versus placebo difference) (normal subjects [2]; [7]): 0.78
- exponentiated upper limit of the 90% confidence interval for log CFR (caffeine versus placebo difference) (normal subjects [2]; [7]): 1.06
- exponentiated upper limit of the 95% confidence interval for log CFR (caffeine versus placebo difference) (normal subjects [2]; [7]): 1.08
- Baseline values of CBF before and after caffeine treatment (conscious dogs [3]; 45 min after 1, 2, 4, and 10 mg/kg caffeine): not significantly different
- change of the maximum increase in CBF induced by Regadenoson vs control (conscious dogs [3]; regadenoson 5 μg/kg IV 45 min after caffeine 1 mg/kg IV): 2±3%
- change of the maximum increase in CBF induced by Regadenoson vs control (conscious dogs [3]; regadenoson 5 μg/kg IV 45 min after caffeine 2 mg/kg IV): −0.7±3%
- change of the maximum increase in CBF induced by Regadenoson vs control (conscious dogs [3]; regadenoson 5 μg/kg IV 45 min after caffeine 4 mg/kg IV): −16±5%
- change of the maximum increase in CBF induced by Regadenoson vs control (conscious dogs [3]; regadenoson 5 μg/kg IV 45 min after caffeine 10 mg/kg IV): −13±8%
- peak decrease in MAP from baseline (conscious dogs [4]; regadenoson 5 μg/kg IV in the presence of 4 mg/kg caffeine): 2±5%
- decrease in LVSP from control (conscious dogs [4]; regadenoson 5 μg/kg IV in the presence of 4 mg/kg of caffeine, p>0.05): 1±5%
- increase in MAP from baseline (conscious dogs [4]; regadenoson 5 μg/kg IV in the presence of 10 mg/cg caffeine, insignificant): 9±6%
- increase in LVSP from control (conscious dogs [4]; regadenoson 5 μg/kg IV in the presence of 10 mg/kg caffeine, significant): 11±7%
- decrease in LVSP from baseline (conscious dogs [4]; [8]): 9±3%
- peak decrease in MAP from baseline (conscious dogs [4]; [8]): 13±2%
- decrease in LVSP from baseline (conscious dogs [4]; [9]): 6±2%
- peak decrease in MAP from baseline (conscious dogs [4]; [9]): 13±1%
- increase in peak HR from baseline (conscious dogs [4]; [9]): 109±21%
- increase in peak HR from baseline (conscious dogs [4]; regadenoson 5 μg/kg IV in the presence of caffeine 4 mg/kg): 79±20%
- increase in peak HR from baseline (conscious dogs [4]; regadenoson 5 μg/kg IV in the presence of caffeine 10 mg/kg): 74±16%
- Pharmacokinetic profiles of Regadenoson [5]: not changed

SMILES: CNC(=O)c1cnn(-c2nc(N)c3ncn([C@@H]4O[C@H](CO)[C@@H](O)[C@H]4O)c3n2)c1 [Regadenoson, (1-{9-[(4S,2R,3R,5R)-3,4-dihydroxy-5-(hydroxymethyl)oxolan-2-yl]-6-aminopurin-2-yl}pyrazol-4-yl)-N-methylcarboxamide]
- QTc prolongation (>500 msec and change of >60 msec) by ECG analysis, not reported as AE (normal subjects [1]; [10]): one subject
- first degree AV block by ECG analysis, not reported as AE (normal subjects [1]; [10]): one subject
- subjects with sensation of heaviness (normal subjects [1]; regadenoson 400 μg IV): 28%
- subjects with paraesthesia (normal subjects [1]; regadenoson 400 μg IV, 8/43 subjects): 19%
- subjects with headache (normal subjects [1]; regadenoson 400 μg IV, 12/43 subjects): 28%
- subjects with flushing (normal subjects [1]; regadenoson 400 μg IV, 13/43 subjects): 30%
- subjects with palpitations (normal subjects [1]; regadenoson 400 μg IV, 21/43 subjects): 49%
- subjects with dyspnoea (normal subjects [1]; regadenoson 400 μg IV, 24/43 subjects): 56%
- subjects with AEs: ear and labyrinth disorders (normal subjects [1]; regadenoson 400 μg IV, at any time, 1/43 subjects): 2%
- subjects with AEs: gastrointestinal disorders (normal subjects [1]; regadenoson 400 μg IV, at any time, 2/43 subjects): 5%
- subjects with AEs: general disorders and administration site conditions (normal subjects [1]; regadenoson 400 μg IV, at any time, 11/43 subjects): 26%
- subjects with AEs: musculoskeletal and connective tissue disorders (normal subjects [1]; regadenoson 400 μg IV, at any time, 12/43 subjects): 28%
- subjects with AEs: vascular disorders (normal subjects [1]; regadenoson 400 μg IV, at any time, 13/43 subjects): 30%
- subjects with AEs: nervous system disorders (normal subjects [1]; regadenoson 400 μg IV, at any time, 18/43 subjects): 42%
- subjects with AEs: cardiac disorders (normal subjects [1]; [11]): 58%
- subjects with AEs: respiratory, thoracic and mediastinal disorders (normal subjects [1]; [11]): 58%
- decrease in MAP (peak) from baseline (conscious dogs [4]; regadenoson 5 μg/kg IV in the absence of caffeine, baseline 102±2 mm Hg, n=9): 15±2%
- increase in HR (peak) from baseline (conscious dogs [4]; regadenoson 5 μg/kg IV without caffeine, baseline 80±4 beats/min, n=9): 114±14%
- decrease in LVSP (peak) from baseline (conscious dogs [4]; regadenoson 5 μg/kg IV without caffeine, baseline 139±5 mm Hg, n=8): 9±1%
- increase in LV dP/dtMax (peak) from baseline (conscious dogs [4]; regadenoson 5 μg/kg IV, baseline 3240±196 mm Hg/s): 65±7%
